Values of other authors in patent publication US20090062317A1, “MEDICINAL USE OF RECEPTOR LIGANDS” (7TM PHARMA A/S, priority 2004, published 2009).

Tested on: rats
Conditions: literature reports

In the case of `COCC1=C(C(=O)OC)[C@H](c2ccc(F)c(F)c2)N(C(=O)NCCCN2CCC(c3cccc(NC(C)=O)c3)CC2)C(=O)N1` [SNAP-7941], the “food intake induced by i.c.v.-injected MCH” value is listed as “suppress food intake”.

For `CN(C)CC1CCc2cc(NC(=O)c3ccc(-c4ccc(F)cc4)cc3)ccc2C1` (centres unmarked) [Example T-226296], the “food intake induced by i.c.v.-injected MCH” value is given as “suppress food intake”.
